Converted amounts (≈) assume the structure as drawn. Where two headings read alike, the source gives them in different places.
How the values were obtained:
in vivo = conditions: mouse, iv
[1] = Acid resistance (half-life period); type: physicochemical; conditions: acid ph 1.3, Temperature 37° C, pH 1.3, read-out: τ1/2 half-life period (acid resistance)
Experimental: (§1) All compounds of this group were prepared in the form of sodium salts. Bactericidal activity, degree of hydrolysis with staphylococc penicillinase and acid resistance of the penicillins were determined.

Sh.dysenteriae Flexneri = experiment: Minimal bacteriostatic concentration; type: cell-based; conditions: Shigella dysenteriae, read-out: Minimal Bacteriostatic Concentration
Experimental: as §1

Vibrion Metschnicoff = experiment: Minimal bacteriostatic concentration; type: cell-based; conditions: Vibrion Metschnicoff; sodium salts; read-out: Minimal Bacteriostatic Concentration
Experimental: as §1

E.coli O-55 = experiment: Minimal bacteriostatic concentration; type: cell-based; conditions: Escherichia coli, O55, read-out: Minimal Bacteriostatic Concentration
Experimental: as §1

Myco smegmatis = experiment: Minimal bacteriostatic concentration; type: cell-based; conditions: sodium salts
Experimental: as §1

B.Subtitis ATCC6633 = experiment: Minimal bacteriostatic concentration; type: cell-based; conditions: sodium salts
Experimental: as §1

Ps.aeruginosa = experiment: Minimal bacteriostatic concentration; type: cell-based; conditions: Pseudomonas aeruginosa, sodium salts
Experimental: as §1

Staph. aureus 209p = experiment: Minimal bacteriostatic concentration; type: cell-based; conditions: Staphylococcus aureus, sodium salts
Experimental: as §1

Strept. pyrogenes = experiment: Minimal bacteriostatic concentration; type: cell-based; conditions: sodium salts
Experimental: as §1

Staph. albus = experiment: Minimal bacteriostatic concentration; type: cell-based; conditions: sodium salts
Experimental: as §1

E.typhi = experiment: Minimal bacteriostatic concentration; type: cell-based; conditions: read-out: Minimal Bacteriostatic Concentration
Experimental: as §1

Prot.vulgaris = experiment: Minimal bacteriostatic concentration; type: cell-based; conditions: Proteus vulgaris, sodium salts
Experimental: as §1

[2] = target: staphylococc penicillinase (Staphylococcus aureus, UniProt P00807); experiment: Hydrolysis/inactivation by staphylococc penicillinase; type: biochemical; conditions: Table 5
Experimental: as §1
The substitution of propoxy radical for iso-radical in this position is not accompanied by areduction of penicillin stability against penicillinase which is not observed in the orto- and para-positions. During the subsequent hours of inactivation the rate of hydrolysis of penicillins slightly increases. However, even when observed in dynamics, their stability against penicillianase still persists during 4-hour-inactivation.

staphylococc penicillinase, sequence (P00807 25-281): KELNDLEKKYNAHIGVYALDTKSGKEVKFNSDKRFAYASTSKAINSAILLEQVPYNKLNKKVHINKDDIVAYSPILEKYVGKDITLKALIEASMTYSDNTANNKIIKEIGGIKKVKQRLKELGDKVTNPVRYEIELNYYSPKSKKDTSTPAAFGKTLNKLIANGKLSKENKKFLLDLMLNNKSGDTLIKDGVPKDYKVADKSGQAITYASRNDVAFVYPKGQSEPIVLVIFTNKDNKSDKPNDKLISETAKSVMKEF

Compound | MTD (in vivo) [mg/kg] | half-life ([1]; Table 2, cyclopropyl series) [min] | half-life ([1]; Table 3, cyclobutyl series) [min] | further results
CCCOc1ccc(C2(C(=O)N[C@@H]3C(=O)N4[C@@H]3SC(C)(C)[C@@H]4C(=O)O)CC2)cc1 [Compound XIV (Table 2)] | 1000 | 19.4 | – | –
CCCCOc1ccc(C2(C(=O)NC3C(=O)N4C3SC(C)(C)C4C(=O)O)CCCC2)cc1 (stereo not shown) [Compound XVI (Table 1)] | 1500 | – | – | MIC (Sh.dysenteriae Flexneri): 62.5 µg/mL (≈ 136 µM); MIC (Vibrion Metschnicoff): 0.48 µg/mL; MIC (E.coli O-55): 125 µg/mL (≈ 271 µM); MIC (Myco smegmatis): > 500 µg/mL; MIC (B.Subtitis ATCC6633): 0.24 µg/mL; MIC (Ps.aeruginosa): > 500 µg/mL; MIC (Staph. aureus 209p): 0.39 µg/mL; MIC (Strept. pyrogenes): 0.048 µg/mL; MIC (Staph. albus): 0.19 µg/mL; MIC (E.typhi): 15.6 µg/mL (≈ 33.9 µM); MIC (Prot.vulgaris): 125 µg/mL; Quantity of inactivated units of compounds under the action of 1 unit of staphylococc penicillinase [2]: 23.3 units; half-life ([1]; Table 1, cyclopentyl series): 43.2 min
CCOc1ccc(C2(C(=O)N[C@@H]3C(=O)N4[C@@H]3SC(C)(C)[C@@H]4C(=O)O)CCC2)cc1 [Compound XIII (Table 3)] | 1000 | – | 190 | –
CC(C)Oc1ccc(C2(C(=O)NC3C(=O)N4C3SC(C)(C)C4C(=O)O)CCCC2)cc1 (stereo not shown) [Compound XV (Table 1)] | 1500 | – | – | MIC (Sh.dysenteriae Flexneri): 31.2 µg/mL (≈ 69.9 µM); MIC (Vibrion Metschnicoff): 0.48 µg/mL; MIC (E.coli O-55): 25 µg/mL (≈ 56 µM); MIC (Myco smegmatis): > 500 µg/mL; MIC (B.Subtitis ATCC6633): 0.24 µg/mL; MIC (Ps.aeruginosa): > 500 µg/mL; MIC (Staph. aureus 209p): 0.19 µg/mL; MIC (Strept. pyrogenes): 0.09 µg/mL; MIC (Staph. albus): 0.19 µg/mL; MIC (E.typhi): 7.8 µg/mL (≈ 17.5 µM); MIC (Prot.vulgaris): 62.5 µg/mL; Quantity of inactivated units of compounds under the action of 1 unit of staphylococc penicillinase [2]: 9.4 units; half-life ([1]; Table 1, cyclopentyl series): 160 min
CC(C)Oc1ccccc1C1(C(=O)N[C@@H]2C(=O)N3[C@@H]2SC(C)(C)[C@@H]3C(=O)O)CCC1 [Compound V (Table 3)] | 250 | – | 18.6 | –
COc1cccc(C2(C(=O)NC3C(=O)N4C3SC(C)(C)C4C(=O)O)CC2)c1 (stereo not shown) [Compound VII (Table 2)] | 1500 | 7.2 | – | –
CCCCOc1cccc(C2(C(=O)N[C@@H]3C(=O)N4[C@@H]3SC(C)(C)[C@@H]4C(=O)O)CC2)c1 [Compound XI (Table 2)] | 250 | 6.2 | – | –
CC(C)Oc1cccc(C2(C(=O)N[C@@H]3C(=O)N4[C@@H]3SC(C)(C)[C@@H]4C(=O)O)CC2)c1 [Compound X (Table 2)] | 500 | 10.5 | – | –
CCCCOc1ccc(C2(C(=O)N[C@@H]3C(=O)N4[C@@H]3SC(C)(C)[C@@H]4C(=O)O)CCC2)cc1 [Compound XVI (Table 3)] | 500 | – | 25.6 | –
CC1(C)SC2C(NC(=O)C3(c4ccccc4)CC3)C(=O)N2C1C(=O)O (stereo not shown) [Compound I (Table 2)] | 1500 | 9.9 | – | –
CCOc1ccccc1C1(C(=O)N[C@@H]2C(=O)N3[C@@H]2SC(C)(C)[C@@H]3C(=O)O)CCC1 [Compound III (Table 3)] | 250 | – | 19.1 | –
COc1ccccc1C1(C(=O)NC2C(=O)N3C2SC(C)(C)C3C(=O)O)CC1 (stereo not shown) [Compound II (Table 2)] | 2000 | 5 | – | –
CCCCOc1ccc(C2(C(=O)N[C@@H]3C(=O)N4[C@@H]3SC(C)(C)[C@@H]4C(=O)O)CC2)cc1 [Compound XVI (Table 2)] | 250 | 6.1 | – | –
COc1ccc(C2(C(=O)N[C@@H]3C(=O)N4[C@@H]3SC(C)(C)[C@@H]4C(=O)O)CCC2)cc1 [Compound XII (Table 3)] | 1500 | – | 10.7 | –
CC1(C)S[C@@H]2[C@H](NC(=O)C3(c4ccccc4)CCC3)C(=O)N2[C@H]1C(=O)O [Compound I (Table 3)] | 1000 | – | 86.6 | –
CC(C)Oc1ccc(C2(C(=O)N[C@@H]3C(=O)N4[C@@H]3SC(C)(C)[C@@H]4C(=O)O)CCC2)cc1 [Compound XV (Table 3)] | 500 | – | 60.1 | –
CCCOc1ccc(C2(C(=O)N[C@@H]3C(=O)N4[C@@H]3SC(C)(C)[C@@H]4C(=O)O)CCC2)cc1 [Compound XIV (Table 3)] | 250 | – | 27.3 | –
CCOc1cccc(C2(C(=O)N[C@@H]3C(=O)N4[C@@H]3SC(C)(C)[C@@H]4C(=O)O)CCC2)c1 [Compound VIII (Table 3)] | 1500 | – | 23.8 | –

Compound | MTD (in vivo) [mg/kg] | half-life ([1]; Table 2, cyclopropyl series) [min] | half-life ([1]; Table 3, cyclobutyl series) [min] | further results
CCCCOc1cccc(C2(C(=O)N[C@@H]3C(=O)N4[C@@H]3SC(C)(C)[C@@H]4C(=O)O)CCC2)c1 [Compound XI (Table 3)] | 1000 | – | 46.6 | –
CCCCOc1ccccc1C1(C(=O)N[C@@H]2C(=O)N3[C@@H]2SC(C)(C)[C@@H]3C(=O)O)CCC1 [Compound VI (Table 3)] | 1000 | – | 24.9 | –
CCOc1ccccc1C1(C(=O)NC2C(=O)N3C2SC(C)(C)C3C(=O)O)CC1 (stereo not shown) [Compound III (Table 2)] | 500 | 6 | – | –
CCOc1ccc(C2(C(=O)N[C@@H]3C(=O)N4[C@@H]3SC(C)(C)[C@@H]4C(=O)O)CC2)cc1 [Compound XIII (Table 2)] | 2750 | 6.7 | – | –
COc1ccc(C2(C(=O)N[C@@H]3C(=O)N4[C@@H]3SC(C)(C)[C@@H]4C(=O)O)CC2)cc1 [Compound XII (Table 2)] | 2000 | 7.3 | – | –
COc1ccc(C2(C(=O)NC3C(=O)N4C3SC(C)(C)C4C(=O)O)CCCC2)cc1 (stereo not shown) [Compound XII (Table 1)] | 2000 | – | – | MIC (Sh.dysenteriae Flexneri): 31.2 µg/mL (≈ 74.5 µM); MIC (Vibrion Metschnicoff): 0.48 µg/mL; MIC (E.coli O-55): 125 µg/mL (≈ 299 µM); MIC (Myco smegmatis): > 500 µg/mL; MIC (B.Subtitis ATCC6633): 0.24 µg/mL; MIC (Ps.aeruginosa): > 500 µg/mL; MIC (Staph. aureus 209p): 0.19 µg/mL; MIC (Strept. pyrogenes): 0.048 µg/mL; MIC (Staph. albus): 0.19 µg/mL; MIC (E.typhi): 7.8 µg/mL (≈ 18.6 µM); MIC (Prot.vulgaris): 62.5 µg/mL; Quantity of inactivated units of compounds under the action of 1 unit of staphylococc penicillinase [2]: 40.3 units; half-life ([1]; Table 1, cyclopentyl series): 163 min
CC(C)Oc1cccc(C2(C(=O)N[C@@H]3C(=O)N4[C@@H]3SC(C)(C)[C@@H]4C(=O)O)CCC2)c1 [Compound X (Table 3)] | 500 | – | 17.2 | –
CCOc1ccc(C2(C(=O)NC3C(=O)N4C3SC(C)(C)C4C(=O)O)CCCC2)cc1 (stereo not shown) [Compound XIII (Table 1), 1-(n-Ethoxyphenyl)Cyclopentyl-1-Penicillin] | 1500 | – | – | MIC (Sh.dysenteriae Flexneri): 31.2 µg/mL (≈ 72.1 µM); MIC (Vibrion Metschnicoff): 0.19 µg/mL; MIC (E.coli O-55): 62.5 µg/mL (≈ 144 µM); MIC (Myco smegmatis): > 500 µg/mL; MIC (B.Subtitis ATCC6633): 0.24 µg/mL; MIC (Ps.aeruginosa): > 500 µg/mL; MIC (Staph. aureus 209p): 0.19 µg/mL; MIC (Strept. pyrogenes): 0.048 µg/mL; MIC (Staph. albus): 0.09 µg/mL; MIC (E.typhi): 7.8 µg/mL (≈ 18 µM); MIC (Prot.vulgaris): 62.5 µg/mL; Quantity of inactivated units of compounds under the action of 1 unit of staphylococc penicillinase [2]: 24.9 units; half-life ([1]; Table 1, cyclopentyl series): 99.2 min
CCCOc1cccc(C2(C(=O)N[C@@H]3C(=O)N4[C@@H]3SC(C)(C)[C@@H]4C(=O)O)CC2)c1 [Compound IX (Table 2)] | 1500 | 14.5 | – | –
CCCCOc1ccccc1C1(C(=O)NC2C(=O)N3C2SC(C)(C)C3C(=O)O)CC1 (stereo not shown) [Compound VI (Table 2)] | 500 | 5.2 | – | –
COc1ccccc1C1(C(=O)N[C@@H]2C(=O)N3[C@@H]2SC(C)(C)[C@@H]3C(=O)O)CCC1 [Compound II (Table 3)] | 500 | – | 7.7 | –
CCOc1cccc(C2(C(=O)NC3C(=O)N4C3SC(C)(C)C4C(=O)O)CC2)c1 (stereo not shown) [Compound VIII (Table 2)] | 1500 | 7.3 | – | –
CCCOc1ccccc1C1(C(=O)NC2C(=O)N3C2SC(C)(C)C3C(=O)O)CC1 (stereo not shown) [Compound IV (Table 2)] | 500 | 5.8 | – | –
CCCCOc1cccc(C2(C(=O)NC3C(=O)N4C3SC(C)(C)C4C(=O)O)CCCC2)c1 (stereo not shown) [Compound XI (Table 1)] | 2000 | – | – | MIC (Sh.dysenteriae Flexneri): 125 µg/mL (≈ 271 µM); MIC (Vibrion Metschnicoff): 15.6 µg/mL; MIC (E.coli O-55): 125 µg/mL (≈ 271 µM); MIC (Myco smegmatis): > 500 µg/mL; MIC (B.Subtitis ATCC6633): 1.56 µg/mL; MIC (Staph. aureus 209p): 0.39 µg/mL; MIC (Strept. pyrogenes): 0.39 µg/mL; MIC (Staph. albus): 0.19 µg/mL; MIC (Prot.vulgaris): 125 µg/mL; Quantity of inactivated units of compounds under the action of 1 unit of staphylococc penicillinase [2]: 11.2 units; half-life ([1]; Table 1, cyclopentyl series): 278 min
CC(C)Oc1ccccc1C1(C(=O)NC2C(=O)N3C2SC(C)(C)C3C(=O)O)CC1 (stereo not shown) [Compound V (Table 2)] | 500 | 6 | – | –
COc1cccc(C2(C(=O)N[C@@H]3C(=O)N4[C@@H]3SC(C)(C)[C@@H]4C(=O)O)CCC2)c1 [Compound VII (Table 3)] | 1500 | – | 56.9 | –
CCCOc1cccc(C2(C(=O)N[C@@H]3C(=O)N4[C@@H]3SC(C)(C)[C@@H]4C(=O)O)CCC2)c1 [Compound IX (Table 3)] | 250 | – | 20.1 | –
CCCOc1ccccc1C1(C(=O)N[C@@H]2C(=O)N3[C@@H]2SC(C)(C)[C@@H]3C(=O)O)CCC1 [Compound IV (Table 3)] | 500 | – | 23 | –
